In US20240277847A1, “BENCH-STABLE TRIAZENE COMPOSITIONS FOR PROTEIN MODIFICATION” (ARIZONA BOARD OF REGENTS ON BEHALF OF THE UNIVERSITY OF …, priority 2021, published 2024):

Experiment: pH of triazene water solution before, during and after 370 nm irradiation
Assay type: physicochemical
Conditions: 0.5 mM triazene in water, 370 nm light; for pH change during irradiation: 1 minute
Method: Referring to FIG. 5, 0.5 mM of triazenes 1a, 1g, and 1i were incubated in a water solution and the relative pH was measured before, during, and after irradiation with 370 nm light. […] Furthermore, the data notes that after irradiation has ceased, there is an immediate drop in pH consistent with the reversion of the scaffold to the trans-species.

Compound	pH change during irradiation	relative change in pH versus 1g
COc1ccc(N=Nc2ccc(O)cc2O)cc1 [2i]	notable increases of pH	
COc1ccc(N=NN2CCCCC2)cc1 [1i]		over double that of 1g
O=[N+]([O-])c1ccc(N=NN2CCCCC2)cc1 [1a]	did not elicit notable pH change	
c1ccc(N=NN2CCCCC2)cc1 [1g]	notable increases of pH	
